The values that follow come from patent US20260166130A1, “PEPTIDE COMPOSITION HAVING ANGIOGENIC ACTIVITY, AND PHARMACEUTICAL COMPOSITION USING SAME AND COSMETIC COMPOSITION USING SAME” (LABTOMEDI CRO CO.,LTD., priority 2022, published 2026).

No end group written: not given here.

The subject of series [1] is HUVECs. Description: MTT cytotoxicity assay. The class given is cell-based, human. To be noted: 0.1 μM, 0.5 μM, 1.0 μM and 2.0 μM, incubated overnight. As to the method:
HUVECS (PromoCell, Heidelberg, Germany) were cultured in endothelial basal medium 2 (EBM) supplemented with Supplement Mix (PromoCell) containing 2% fetal bovine serum (FBS). The Supplement Mix consisted of 5 ng/mL epidermal growth factor (EGF), 10 ng/ml basic fibroblast growth factor (bFGF), 20 ng/mL insulin-like growth factor (IGF), 0.5 ng/mL VEGF, 1 ug/mL ascorbic acid, 22.5 ug/mL heparin, and 0.2 ug/mL hydrocortisone. In some experiments, cells were cultured in EBM medium supplemented with Supplement Mix, and cells between passages 2 and 7 were used in all experiments. Cells were cultured for 24 hours in a 5% CO2 incubator at a 37° C.
HUVECs were seeded at a density of 10,000 cells in 96-well plates (SPL, Korea) and incubated overnight with EBM-2 medium containing visfatin (1,000 ng/ml) and each of the peptides with the highest affinity, obtained from docking simulation, in a 5% CO2 incubator at 37° C. MIT reagent (Sigma-Aldrich) was added to each well to a final concentration of 0.5 mg/ml. After 4 hours, the medium was removed, the formazan crystals formed in the cells were dissolved in dimethyl sulfoxide (DMSO), and the absorbance of the formazan solution was measured at a wavelength of 540 nm using a Synergy HTX Multi-Mode Reader (BIO-TEK, Vermont, USA). Each sample was assayed in triplicate. […]

The test system of series [2] is HUVECs. Description: Blood vessel (tube) formation assay on Matrigel. The class given is cell-based, human. To be noted: 4 hours, vs. control. How it is done:
HUVECs (20,000 cells/well) were seed on a layer of previously polymerized Matrigel and treated with or without the first peptide and the second peptide. The Matrigel culture was incubated at 37° C. After 4 hours, changes in cell morphology were captured using a phase-contrast microscope (×40). Each sample was assayed in duplicate, and independent experiments were repeated three times. *P<0.05, **P,0.01, ***P<0.001 (vs. control).
HUVECs (20,000 cells/well) were seeded on a layer of previously polymerized Matrigel, treated with the visfatin-derived peptides, and then incubated in a 5% CO2 incubator at 37° C. for 4 hours. Then, changes in the cell morphology were observed and photographed using a phase-contrast microscope at 40× magnification. Each sample was assayed in duplicate, and independent experiments were repeated three times. Angiogenesis was analyzed with ImageJ software using an angiogenesis analyzer (Bethesda, MD, USA).

Consider EYKLHDFGYRGV [Peptide 2, EYKLHDFGYRGV], for which the “cell viability of HUVECs (cytotoxicity)” value with HUVECs [1] is “did not affect the viability of the cells”.

With LEYKLHDFGY [Peptide 1, LEYKLHDFGY], the “cell viability of HUVECs (cytotoxicity)” value with HUVECs [1] is listed as “did not affect the viability of the cells”.

basic fibroblast growth factor [bFGF]: the “number of master junctions (tube formation)” value in the series with HUVECs [2] (second peptide except at the 2.0 μM concentration) is recorded as “significantly increased”. For the same substance, the “number of meshes (tube formation)” value in the series on HUVECs [2] (positive controls) is listed as “not significantly changed”.
